These results are taken from patent US20260176289A1, “SMALL MOLECULE INHIBITORS OF KRAS PROTEINS” (Merck Sharp & Dohme LLC, priority 2022, published 2026).

pIC50: −log10 of the molar value. Like-named read-outs stand apart in the source and are kept apart here.

One assay addresses KRAS-WT (Homo sapiens, UniProt P01116). Briefly: SOS-catalyzed nucleotide exchange assay (Procedure A, TR-FRET), KRAS-WT. The assay is classed as biochemical. In short, it runs like this: (§1)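 Compounds (10-point, 3-fold) were preincubated 60 min at room temperature with a biotinylated RAS/Bodipy-GDP/Tb-streptavidin TR-FRET complex. Exchange was started with human SOS plus 3 mM GTP. RAS/SOS: G12C 3/40 nM, WT 1/40 nM, NRAS 1.25/40 nM (60 min); G12V 1.25/160 nM (90 min). The 520/495 ratio was fit four-parameter.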
Background: In TR-FRET formats the signal depends on donor and acceptor labels being close together.

For the next assay, the target named is KRAS-G12D (Homo sapiens, UniProt P01116, G12D). Briefly: SOS-catalyzed nucleotide exchange assay (Procedure A, TR-FRET), KRAS-G12D. The format is biochemical. In short, it runs like this:
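Signal ratio (520/495 nm, excitation 340 nm) reports Bodipy-GDP retention on biotinylated RAS after SOS-catalyzed exchange with 3 mM GTP. SOS was 40 nM, except 160 nM for G12V. Room-temperature exchange lasted 60 min (90 min for G12V), following a 60 min compound preincubation.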

The target of another assay is KRAS-G12V (Homo sapiens, UniProt P01116, G12V). Kind of assay: SOS-catalyzed nucleotide exchange assay (Procedure A, TR-FRET), KRAS-G12V. The format is biochemical. In short, it runs like this: as §1
KRAS-G12V, sequence (P01116 with tags, fused parts or gaps isoform P01116-2 G12V): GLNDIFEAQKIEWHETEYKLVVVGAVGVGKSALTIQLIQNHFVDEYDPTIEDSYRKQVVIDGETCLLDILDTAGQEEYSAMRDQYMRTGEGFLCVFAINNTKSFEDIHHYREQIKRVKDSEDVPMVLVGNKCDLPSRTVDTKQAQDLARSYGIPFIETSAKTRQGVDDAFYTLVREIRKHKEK
A further assay concerns MKN-1 cells. Kind of assay: Cellular phospho-ERK assay, MKN-1 cells (amplified wild-type KRAS). The assay is classed as cell-based. The settings on record: Homo sapiens, read-out: MKN1 pERK IC50. In short, it runs like this: (§2)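 ERK phosphorylation relative to total ERK is the endpoint, detected by AlphaScreen-based SureFire multiplex following a 2-hour treatment at 37 °C. Compounds are titrated 1:3 over ten points from 30 μM.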

Another assay concerns AsPC-1 cells. Kind of assay: Cellular phospho-ERK assay, AsPC-1 cells (homozygous KRAS-G12D). The assay is classed as cell-based. The settings on record: Homo sapiens, read-out: AsPC1 pERK IC50. In short, it runs like this:
as §2

For a further assay, the system named is SW620 cells. Briefly: Cellular phospho-ERK assay, SW620 cells (homozygous KRAS-G12V). The settings on record: Homo sapiens, read-out: SW620 pERK IC50. The format is cell-based. In short, it runs like this:
as §2

Where [1] appears, read: nucleotide exchange, read-out: KRAS WT GNE IC50.
Where [2] appears, read: nucleotide exchange, read-out: KRAS G12D GNE IC50.
Setting [3] is: nucleotide exchange, read-out: KRAS G12V GNE IC50.
Where [4] appears, read: amplified wild-type KRAS, 2 hours.
The mark [5] stands for this setting: ASPC1, 2 h, 2 hours compound incubation.
Setting [6] is: SW-620, 2 hours compound incubation.

KRAS-WT, sequence (P01116 with tags, fused parts or gaps isoform P01116-2): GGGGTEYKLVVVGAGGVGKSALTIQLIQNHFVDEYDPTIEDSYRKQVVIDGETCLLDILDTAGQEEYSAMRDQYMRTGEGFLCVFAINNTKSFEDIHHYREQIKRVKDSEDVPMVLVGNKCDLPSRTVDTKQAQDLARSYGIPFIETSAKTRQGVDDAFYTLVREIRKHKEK
KRAS-G12D, sequence (P01116 with tags, fused parts or gaps isoform P01116-2 G12D): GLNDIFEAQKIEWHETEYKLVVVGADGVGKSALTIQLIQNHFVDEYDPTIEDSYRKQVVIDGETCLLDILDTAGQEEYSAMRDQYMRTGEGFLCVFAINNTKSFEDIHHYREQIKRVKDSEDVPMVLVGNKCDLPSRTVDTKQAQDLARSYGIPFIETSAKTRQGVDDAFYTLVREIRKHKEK

The term pIC50 denotes the negative decadic logarithm of the IC50, by convention in mol/L. For the molecule `Cn1c2nc(OC[C@@]34CCCN3C[C@H](F)C4)nc(N3CCOC[C@@](C)(O)C3)c2c2ccnc(-c3c(C4(F)CC4)c(Cl)cc4[nH]ncc34)c21` (single isomer, unassigned) [Ex-3], the pIC50 was 7.76 on KRAS-WT (setting [1]); 7.98 at KRAS-G12D (setting [2]); 7.81 at KRAS-G12V (setting [3]); 6.87 with MKN-1 cells (setting [4]); 6.68 in the assay with AsPC-1 cells (ASPC1, 2 h, KRAS-G12D, 2 hours); 7.02 in the assay on SW620 cells (SW-620, KRAS-G12V, 2 hours).

Regarding `C[C@@]1(O)COCCN(c2nc(OC[C@]3(CN4CC5(CCOCC5)C4)CC3(F)F)nc3sc4c(-c5c(C6(F)CC6)c(Cl)cc6[nH]ncc56)nccc4c23)C1` [Ex-248, (6S)-4-(2-(((R)-1-((7-oxa-2-azaspiro[3.5]nonan-2-yl)methyl)-2,2-difluorocyclopropyl)methoxy)-8-(6-chloro-5-(1-fluorocyclopropyl)-1H-indazol-4-yl)pyrido[4′,3′:4,5]thieno[2,3-d]pyrimidin-4-y1)-6-methyl-1,4-oxazepan-6-ol], the pIC50 on KRAS-WT (setting [1]) was 7.90; at KRAS-G12D (setting [2]), 8.51; at KRAS-G12V (setting [3]), 7.81; in the assay on MKN-1 cells (2 hours compound incubation) it was 7.44; in the assay with AsPC-1 cells (setting [5]), 7.34; in the assay with SW620 cells (setting [6]), 7.37.

Consider `C[C@@]1(O)COCCN(c2nc(OC[C@@]34CCN3C[C@H](F)C4)nc3sc4c(-c5c(C6CC6)c(Cl)cc6[nH]ncc56)nccc4c23)C1` (single isomer, unassigned) [Ex-221], for which the pIC50 was 7.64 at KRAS-WT (setting [1]); 8.26 at KRAS-G12D (setting [2]); 7.67 on KRAS-G12V (setting [3]); 7.09 in the assay on MKN-1 cells (2 hours compound incubation); 6.76 in the assay on AsPC-1 cells (setting [5]); 7.10 in the assay with SW620 cells (setting [6]).

As for `C/C=C1\CCCc2cc3[nH]ncc3c(-c3nccc4c3sc3nc(OC[C@@]56CCCN5C[C@H](F)C6)nc(N5CCOC[C@@](C)(O)C5)c34)c21` [Ex-174, (6S)-4-(8-((E)-5-ethyl-idene-5,6,7,8-tetrahydro-1H-benzo[f]indazol-4-yl)-2-(((2R,7aS)-2-fluoro-tetrahydro-1H-pyrrolizin-7a(5H)-yl)methoxy)pyr-ido[4′,3′:4,5]thieno[2,3-d]pyrimidin-4-yl)-6-meth-yl-1,4-oxazepan-6-ol], the pIC50 at KRAS-WT (setting [1]) was 7.19; at KRAS-G12D (setting [2]), 7.63; on KRAS-G12V (setting [3]), 7.58; in the assay on MKN-1 cells (2 hours compound incubation), 7.13; in the assay with AsPC-1 cells (setting [5]) it was 6.59; in the assay with SW620 cells (setting [6]), 7.04.

For the molecule `C[C@@]1(O)COCCN(c2nc(OC[C@@]34C[C@H](F)CN3CC3(CC3)C4)nc3sc4c(-c5c(C6CC6)c(Cl)cc6[nH]ncc56)nccc4c23)C1` [Ex-219, (6S)-4-(8-(6-chloro-5-cyclopropyl-1H-indazol-fluoro-dihydro-1H,3′H-spiro[cyclopropane-1,2′-yl)methoxy)-pyrido[4′,3′:4,5]thieno[2,3-d]pyr-imidin-4-yl)-6-methyl-1,4-oxaze-pan-6-ol], the pIC50 at KRAS-WT (setting [1]) is 6.59; at KRAS-G12D (setting [2]), 7.08; on KRAS-G12V (setting [3]), 6.71; in the assay with MKN-1 cells (2 hours compound incubation), 6.50; in the assay on AsPC-1 cells (setting [5]), 6.52; with SW620 cells (setting [6]), 6.64.

Take `C[C@@]1(O)COCCN(c2nc(OC[C@@]34CCCN3C[C@H](F)C4)nc3[se]c4c(-c5c(C6CC6)c(Cl)cc6[nH]ncc56)nccc4c23)C1` [Ex-289, (6S)-4-(8-(6-chloro-5-cyclopropyl-1H-indazol-4-yl)-2-(((2R,7aS)-2-fluorotetrahydro-1H-pyrrolizin-7a(5H)-yl)methoxy)pyri-do[4′,3′:4,5]seleno-pheno[2,3-d]pyrimidin-4-yl)-6-methyl-1,4-oxazepan-6-ol]: the pIC50 was 7.65 on KRAS-WT (KRAS WT GNE IC50, nucleotide exchange); 8.16 against KRAS-G12D (KRAS G12D GNE IC50, nucleotide exchange); 7.57 on KRAS-G12V (KRAS G12V GNE IC50, nucleotide exchange); 7.09 in the assay on MKN-1 cells (setting [4]); 6.99 with AsPC-1 cells (ASPC1, KRAS-G12D, 2 hours); 7.19 in the assay on SW620 cells (SW-620, KRAS-G12V, 2 hours).

As to `CCc1csc2cc3[nH]ncc3c(-c3nccc4c3sc3nc(OC[C@@]56CCCN5C[C@H](F)C6)nc(N5CCOC[C@@](C)(O)C5)c34)c12` [Ex-168, (6S)-4-(8-(5-ethyl-1H-thieno[3,2-f]indazol-4-yl)-2-(((2R,7aS)-2-fluorotetrahydro-1H-pyrrolizin-7a(5H)-yl)methoxy)pyrido [4′,3′:4,5]thieno[2,3-d]pyrimidin-4-yl)-6-methyl-1,4-oxazepan-6-ol], the negative logarithm of the IC50 (pIC50) on KRAS-WT (setting [1]) is 8.14; on KRAS-G12D (setting [2]) it was 8.50; on KRAS-G12V (setting [3]) it was 8.26; in the assay with MKN-1 cells (2 hours compound incubation), 7.59; in the assay with AsPC-1 cells (setting [5]), 7.50; in the assay on SW620 cells (setting [6]), 7.89.

For `Cc1cc2[nH]ncc2c(-c2nccc3c2sc2nc(OC[C@@]45CCCN4C[C@H](F)C5)nc(N4CCOCC5(CCCO5)C4)c23)c1C(F)(F)F` (stereo partly drawn) [Ex-197, 10-(2-(((2R,7aS)-2-fluoro-tetrahydro-1H-pyrrolizin-7a(5H)-yl)methoxy)-8-(6-methyl-5-(trifluorometh-yl)-1H-indazol-4-yl)pyrido [4′,3′:4,5]thieno[2,3-d]pyrimidin-4-yl)-1,7-dioxa-10-azaspiro[4.6]undecane], the pIC50 at KRAS-WT (setting [1]) is 6.36; on KRAS-G12D (setting [2]), 6.70; at KRAS-G12V (setting [3]), 6.73; with MKN-1 cells (2 hours compound incubation), 6.29; in the assay on AsPC-1 cells (setting [5]) it was 6.41; in the assay on SW620 cells (setting [6]), 6.34.

As to `C#CC1=CCCc2cc3[nH]ncc3c(-c3nccc4c3sc3nc(OC[C@@]56CCCN5C[C@H](F)C6)nc(N5CCOC[C@@](C)(O)C5)c34)c21` [Ex-173, (6S)-4-(8-(5-ethynyl-7,8-dihydro-1H-benzo[f]indazol-4-yl)-2-(((2R,7aS)-2-fluorotetrahydro-1H-pyrrolizin-7a(5H)-yl)methoxy)pyrido[4′,3′:4,5]thieno[2,3-d]pyrimidin-4-yl)-6-methyl-1,4-oxazepan-6-ol], the pIC50 at KRAS-WT (setting [1]) is 7.42; on KRAS-G12D (setting [2]), 7.72; on KRAS-G12V (setting [3]) it was 7.30; in the assay on MKN-1 cells (2 hours compound incubation), 7.24; in the assay on AsPC-1 cells (setting [5]), 6.79; in the assay with SW620 cells (setting [6]), 7.21.

As for `C[C@@]1(O)COCCN(c2nc(OC[C@@]34CCCN3C[C@H](F)C4)nc3sc4c(-c5c(C6(F)CC6)c(C(F)(F)F)cc6[nH]ncc56)nncc4c23)C1` [Ex-283, (6S)-4-(8-(5-(1-fluorocyclopropyl)-6-(trifluoromethyl)-1H-indazol-4-yl)-2-(((2R,7aS)-2-fluorotetrahydro-1H-pyrrolizin-7a(5H)-yl)methoxy)pyrimido [5′,4′:4,5]thieno[2,3-d]pyridazin-4-yl)-6-methyl-1,4-oxazepan-6-ol], the negative logarithm of the IC50 (pIC50) is 7.84 at KRAS-WT (setting [1]); 8.28 on KRAS-G12D (setting [2]); 7.81 at KRAS-G12V (setting [3]); 7.11 with MKN-1 cells (setting [4]); 6.61 in the assay on AsPC-1 cells (ASPC1, 2 h, KRAS-G12D, 2 hours); 7.38 with SW620 cells (SW-620, KRAS-G12V, 2 hours).

On to `C[C@@]1(O)COCCN(c2nc(OC[C@@]34CCCN3CC(=C(F)F)C4)nc3sc4c(-c5c(C6(F)CC6)c(Cl)cc6[nH]ncc56)nccc4c23)C1` [Ex-272, (6S)-4-(8-(6-chloro-5-(1-fluorocyclopropyl)-1H-indazol-4-yl)-2-(((S)-2-(difluoromethylene)tetra-hydro-1H-pyrrolizin-7a(5H)-yl)methoxy)pyri-do[4′,3′:4,5]thi-eno[2,3-d]pyrimidin-4-yl)-6-methyl-1,4-oxazepan-6-ol], for which the negative-log IC50 (pIC50) at KRAS-WT (setting [1]) was 7.53; on KRAS-G12D (setting [2]) it was 8.50; at KRAS-G12V (setting [3]), 7.71; in the assay on MKN-1 cells (setting [4]) it was 7.30; with AsPC-1 cells (ASPC1, 2 h, KRAS-G12D, 2 hours) it was 7.21; in the assay on SW620 cells (SW-620, KRAS-G12V, 2 hours), 7.53.

With `C[C@@]1(O)COCCN(c2nc(OC[C@]3(CN4CC5(COC5)C4)CC3(F)F)nc3sc4c(-c5c(C6CC6)c(Cl)cc6[nH]ncc56)nccc4c23)C1` [Ex-213, (6S)-4-(2-(((R)-1-((2-oxa-6-azaspiro [3.3]heptan-6-yl)-methyl)-2,2-difluoro-cyclopropyl)meth-oxy)-8-(6-chloro-5-cyclopropyl-1H-indazol-4-yl)pyrido [4′,3′:4,5]thieno [2,3-d]pyrimidin-4-yl)-6-methyl-1,4-oxazepan-6-ol], the pIC50 on KRAS-WT (setting [1]) is 7.91; on KRAS-G12D (setting [2]), 8.46; at KRAS-G12V (setting [3]), 7.95; with MKN-1 cells (2 hours compound incubation), 7.18; in the assay on AsPC-1 cells (setting [5]), 7.32; in the assay on SW620 cells (setting [6]) it was 7.37.
